Laboratory results: US9255110B2 (Hoffmann-La Roche Inc., priority 2010, dated 2016)
Where a name gives a salt, the structure may show the parent alone.

Columns and labels:
Type in all cases: biochemical
[1] = target: IRAK-1 (Homo sapiens (Human), UniProt P51617); assay: In vitro IRAK-1 kinase assay; settings: purified recombinant IRAK-1, 50 uM ATP, 33P peptide phosphorylation
Description: Purified recombinant IRAK-4 protein was incubated with 250 uM synthetic peptide ([…]) in 30 ul of kinase buffer including (20 mM MOPS pH7.2, 25 mM beta glycerol phosphate, 5 mM EGTA, 1 mM sodium orthovanadate, 1 mM DTT, 50 uM ATP, 20 mM MgCl2, 10 uCi γ-^33P, 0.1% BSA) for the indicated time. For purified recombinant IRAK-1 protein kinase assay, 50 uM ATP was used. A 25 ul aliquot of the reaction mixture was transferred on to p81 phosphocellulose squares (Upstate Biotechnology, Lake Placid, N.Y.). The assay squares were washed three times with 0.75% phosphoric acid and once with acetone. Enzyme activity was measured by determining the bound radioactivity by liquid scintillation counting.

[2] = target: human full length SYK (Homo sapiens (Human), UniProt P43405); assay: In vitro SYK kinase assay; settings: 20 uM ATP, 33P peptide phosphorylation
Description: Spleen tyrosine kinase (SYK) is a tyrosine kinase that plays an important role in B cell signal transduction. SYK activity is measured by phosphorylation of a peptide substrate (Biotin-[…]) with [gamma-^33P] ATP. The enzyme reaction was conducted at 20 uM ATP with 0.05 uCi [gamma-^33P]ATP (2 uCi for 40 ul assay) and 10 uM peptide substrate at final volume of 40 ul in buffer containing 50 mM Hepes, pH 7.2, 1 mM dithiothreitol, 10 mM MgCl2, 100 uM Na3VO4, 0.1% BSA and 10% DMSO. The enzyme assay was carried out with human full length SYK in the presence or absence of ten compound concentrations. SYK and compound were pre-incubated for 10 minutes. Then, the enzymatic reaction was initiated by addition of ATP and peptide substrate. The reaction mixture was incubated at room temperature for 30 minutes. At the end of incubation, the reaction was terminated by transferring 25 ul of the reaction mixture to 100 ul of 10% streptavidin slurry containing 100 mM EDTA. The reaction product was captured on the affinity resin and sequentially washed on a filtration plate (Millipore, MABVNOB50) with 2M NaCl, 2M M NaCl in 1% phosphoric acid and water to remove free radio nucleotide. Then the incorporation of ^33P into peptide substrate was quantified on a microplate scintillation counter. Compound inhibition potency on SYK was measured by IC50 value generated from ten concentration inhibition curve fitted into the 3-parameter model: % inhibition=Maximum/(1+(IC50/[Inhibitor])^slope). Data were analyzed on Microsoft Excel for parameter estimation.

[3] = target: IRAK-4 (Homo sapiens (Human), UniProt Q9NWZ3); assay: In vitro IRAK-4 kinase assay; settings: purified recombinant IRAK-4, 50 uM ATP, 33P peptide phosphorylation
Chain of IRAK-4 (Q9NWZ3 whole entry, species assumed): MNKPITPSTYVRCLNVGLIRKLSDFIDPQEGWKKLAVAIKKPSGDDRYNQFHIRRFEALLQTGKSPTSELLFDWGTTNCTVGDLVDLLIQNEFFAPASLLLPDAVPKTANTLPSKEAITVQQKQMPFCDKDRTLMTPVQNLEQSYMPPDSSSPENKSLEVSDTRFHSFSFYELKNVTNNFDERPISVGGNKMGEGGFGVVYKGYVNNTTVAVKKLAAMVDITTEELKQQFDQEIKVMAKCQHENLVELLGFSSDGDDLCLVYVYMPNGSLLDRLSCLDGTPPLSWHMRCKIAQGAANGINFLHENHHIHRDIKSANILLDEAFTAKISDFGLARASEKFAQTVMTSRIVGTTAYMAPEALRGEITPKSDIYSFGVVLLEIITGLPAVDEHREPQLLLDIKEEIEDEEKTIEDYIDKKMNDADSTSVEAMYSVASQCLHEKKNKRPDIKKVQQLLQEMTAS
Summary of the method: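 Recombinant IRAK-4 or IRAK-1 incubated with 250 uM synthetic peptide in MOPS pH7.2 kinase buffer with 50 uM ATP, 20 mM MgCl2 and γ-33P ATP for the indicated time. Phosphorylated peptide captured on phosphocellulose, washed with phosphoric acid, quantified by scintillation counting.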

Chain of IRAK-1 (P51617 whole entry, species assumed): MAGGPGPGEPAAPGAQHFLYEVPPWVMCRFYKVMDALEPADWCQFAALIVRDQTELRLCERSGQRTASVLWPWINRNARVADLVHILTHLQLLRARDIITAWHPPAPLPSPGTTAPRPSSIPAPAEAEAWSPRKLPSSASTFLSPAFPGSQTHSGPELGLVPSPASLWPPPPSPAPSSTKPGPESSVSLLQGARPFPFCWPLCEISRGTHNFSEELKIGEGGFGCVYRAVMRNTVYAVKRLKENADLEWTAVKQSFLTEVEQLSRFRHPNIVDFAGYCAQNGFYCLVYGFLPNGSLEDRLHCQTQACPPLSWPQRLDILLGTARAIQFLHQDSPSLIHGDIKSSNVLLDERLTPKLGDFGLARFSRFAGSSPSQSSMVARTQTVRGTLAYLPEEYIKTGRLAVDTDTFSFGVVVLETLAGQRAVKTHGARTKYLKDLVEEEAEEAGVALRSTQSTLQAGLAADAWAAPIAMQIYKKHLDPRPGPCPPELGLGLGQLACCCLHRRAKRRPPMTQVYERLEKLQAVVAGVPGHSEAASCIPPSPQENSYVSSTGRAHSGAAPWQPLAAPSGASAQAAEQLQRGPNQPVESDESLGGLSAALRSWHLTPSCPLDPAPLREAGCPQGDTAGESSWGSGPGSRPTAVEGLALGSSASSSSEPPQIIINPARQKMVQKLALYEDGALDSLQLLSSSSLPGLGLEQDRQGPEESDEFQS

| Compound | IC50 [1] | IC50 [2] | IC50 [3] |
| --- | --- | --- | --- |
| CC(C)(CCO)Oc1cc2ncccc2cc1NC(=O)c1csc2cncnc12 [Example 35, Thieno[3,2-d]pyrimidine-7-carboxylic acid [7-(3-hydroxy-1,1-dimethyl-propoxy)-quinolin-6-yl]-amide hydrochloride] | 0.364 µM | – | 0.049 µM |
| 2-(cis-2-amino-cyclohexylamino)-thieno[3,2-d]pyrimidine-7-carboxylic acid (2,4-dimethoxy-phenyl)-amide [Example 26] | 0.463 µM | – | – |
| O=C(Nc1cc(Cl)ccc1OC1CCC(O)C1)c1cnn2cccnc12 (stereo not drawn) [Example 83, Pyrazolo[1,5-alpha]pyrimidine-3-carboxylic acid [5-chloro-2-(3-hydroxy-cyclopentyloxy)-phenyl]-amide] | – | 0.656 µM | 0.361 µM |
| O=C(Nc1cc(Cl)ccc1O[C@H]1CC[C@@H](O)CC1)c1csc2cncnc12 [Example 62, Thieno[3,2-d]pyrimidine-7-carboxylic acid [5-chloro-2-(4-hydroxy-cyclohexyloxy)-phenyl]-amide] | 0.126 µM | – | 0.149 µM |
| O=C(Nc1cc(Cl)ccc1O[C@H]1CC[C@H](O)CC1)c1csc2cncnc12 [Example 81, Thieno[3,2-d]pyrimidine-7-carboxylic acid [5-chloro-2-(4-hydroxy-cyclohexyloxy)-phenyl]-amide] | 0.6 µM | – | 0.338 µM |
| O=C(Nc1cc2ccccc2cc1OC1CCC(O)CC1)c1cnn2cccnc12 (stereo not drawn) [Example 55, Pyrazolo[1,5-alpha]pyrimidine-3-carboxylic acid [3-(4-hydroxy-cyclohexyloxy)-napthalen-2-yl]-amide] | 0.817 µM | 0.628 µM | 0.124 µM |
| O=C(Nc1cc2cccnc2cc1O[C@@H]1CC[C@H](O)C1)c1csc2cncnc12 [Example 54, hydrochloride] | – | 0.5 µM | 0.122 µM |
| O=C(Nc1cc(Cl)ccc1OC1CCC(O)CC1)c1cnn2cccnc12 (stereo not drawn) [Example 90, Pyrazolo[1,5-alpha]pyrimidine-3-carboxylic acid [5-chloro-2-(4-hydroxy-cyclohexyloxy)-phenyl]-amide] | – | 0.806 µM | 0.459 µM |
| COc1ccc(Cl)cc1NC(=O)c1csc2cnc(NCCN)nc12 [Example 53] | 0.813 µM | 0.35 µM | 0.107 µM |
| O=C(Nc1cc(Cl)ccc1N1CCC(CO)CC1)c1csc2cncnc12 [Example 49, Thieno[3,2-d]pyrimidine-7-carboxylic acid [5-chloro-2-(4-hydroxymethyl-piperidin-1-yl)-phenyl]-amide] | 0.7 µM | – | 0.1 µM |
| NCC1CCN(c2ccc(Cl)cc2NC(=O)c2csc3cncnc23)CC1 [Example 64, Thieno[3,2-d]pyrimidine-7-carboxylic acid [2-(4-aminomethyl-piperidin-1-yl)-5-chloro-phenyl]-amide] | 0.8 µM | – | 0.167 µM |
| O=C(Nc1cc2cccnc2cc1O[C@@H]1CC[C@@H](O)C1)c1csc2cncnc12 (stereo in doubt) [hydrochloride] | 0.246 µM | – | 0.015 µM |
| NCCCOc1cc2ncccc2cc1NC(=O)c1csc2cncnc12 [Example 51, Thieno[3,2-d]pyrimidine-7-carboxylic acid [7-(3-amino-propoxy)-quinolin-6-yl]-amide] | 0.529 µM | 0.376 µM | 0.103 µM |
| COc1ccc(Cl)cc1NC(=O)c1csc2ccc(NCCO)nc12 [Example 162, 5-(2-Hydroxy-ethylamino)-thieno[3,2-beta]pyridine-3-carboxylic acid (5-chloro-2-methoxy-phenyl)-amide] | – | – | 4.66 µM |
| O=C(Nc1cc(Cl)ccc1N1CCC(CO)C1)c1cnn2cccnc12 (stereo not drawn) [Example 106, Pyrazolo[1,5-alpha]pyrimidine-3-carboxylic acid [5-chloro-2-(3-hydroxymethyl-pyrrolidin-1-yl)-phenyl]-amide] | – | – | 0.65 µM |
| O=C(Nc1cc(Cl)ccc1OCc1cnco1)c1cnn2cccnc12 [Example 98, Pyrazolo[1,5-alpha]pyrimidine-3-carboxylic acid [5-chloro-2-(oxazol-5-ylmethoxy)-phenyl]-amide] | – | – | 0.516 µM |
| CN(CCO)c1ccc(Cl)cc1NC(=O)c1cnn2cccnc12 [Example 129, Pyrazolo[1,5-alpha]pyrimidine-3-carboxylic acid {5-chloro-2-[(2-hydroxy-ethyl)-methyl-amino]-phenyl}-amide] | – | – | 2.2 µM |

The remaining compounds from weak to strong by IC50 [3], led by results:

| IC50 [1] | IC50 [2] | IC50 [3] | Compound |
| --- | --- | --- | --- |
| 0.608 µM | – | 0.082 µM | COc1cc2ncccc2cc1NC(=O)c1csc2cnc(NCC(O)CO)nc12 (stereo not shown) [Example 47, 2-(2,3-Dihydroxy-propylamino)-thieno[3,2-d]pyrimidine-7-carboxylic acid (7-methoxy-quinolin-6-yl)-amide] |
| 0.897 µM | – | 0.076 µM | CC(O)C1CCN(c2ccc(Cl)cc2NC(=O)c2cnn3cccnc23)C1 (stereo not drawn) [Example 44, Pyrazolo[1,{tildeover (5)}-alpha] pyrimidine-3-carboxylic acid {5-chloro-2-[3-(1-hydroxy-ethyl)-pyrrolidin-1-yl]-phenyl}-amide] |
| – | 0.216 µM | 0.076 µM | COc1cc2ncccc2cc1NC(=O)c1csc2cnc(NCCO)nc12 [Example 45, 2-(2-Hydroxy-ethylamino)-thieno[3,2-d]pyrimidine-7-carboxylic acid (7-methoxy-quinolin-6-yl)-amide] |
| 0.575 µM | 0.81 µM | 0.074 µM | COc1cc2ncccc2cc1NC(=O)c1csc2cnc(NC3CC3)nc12 [Example 43, 2-Cyclopropylamino-thieno[3,2-d]pyrimidine-7-carboxylic acid (7-methoxy-quinolin-6-yl)-amide] |
| – | 0.5 µM | 0.069 µM | NC(=O)C1CCN(c2ccc(Cl)cc2NC(=O)c2cnn3cccnc23)CC1 [Example 40, Pyrazolo[1,5-alpha]pyrimidine-3-carboxylic acid [2-(4-carbamoyl-piperidin-1-yl)-5-chloro-phenyl]-amide] |
| – | 0.492 µM | 0.063 µM | COc1cc2ncccc2cc1NC(=O)c1csc2cnc(N[C@H](C)CO)nc12 [Example 39, 2-(2-Hydroxy-1-methyl-ethylamino)-thieno[3,2-d]pyrimidine-7-carboxylic acid (7-methoxy-quinolin-6-yl)-amide] |
| 0.307 µM | – | 0.053 µM | CN(C)CC1CCN(c2ccc(Cl)cc2NC(=O)c2cnn3cc(O)cnc23)CC1 [Example 37, 6-Hydroxy-pyrazolo[1,5-alpha]pyrimidine-3-carboxylic acid [5-chloro-2-(4-dimethyl-aminomethyl-piperidin-1-yl)-phenyl]-amide] |
| – | 0.478 µM | 0.049 µM | O=C1Cc2cc(N3CCC(CO)CC3)c(NC(=O)c3cnn4cccnc34)cc2N1 [Example 34, Pyrazolo[1,5-alpha]pyrimidine-3-carboxylic acid [5-(4-hydroxymethyl-piperidin-1-yl)-2-oxo-2,3-dihydro-1H-indol-6-yl]-amide] |
| – | 0.746 µM | 0.035 µM | COc1cc2ncccc2cc1NC(=O)c1csc2cc(CO)cnc12 [Example 30, 6-Hydroxymethyl-thieno[3,{tildeover (2)}beta] pyridine-3-carboxylic acid (7-methoxy-quinolin-6-yl)-amide] |
| – | 0.103 µM | 0.029 µM | O=C(Nc1cc2cccnc2cc1OC1CCC(O)CC1)c1cnn2cccnc12 (stereo not shown) [Example 23] |
| 0.3 µM | – | 0.029 µM | COc1cc2ncccc2cc1NC(=O)c1csc2cnc(N(C)CCO)nc12 [Example 24] |
| 0.76 µM | 0.449 µM | 0.024 µM | CC(O)CC(C)Oc1cc2ncccc2cc1NC(=O)c1csc2cncnc12 (stereo not shown) |
| 0.644 µM | – | 0.024 µM | O=C(Nc1cc(Cl)ccc1N1CCCCC1)c1cnn2cc(O)cnc12 [Example 20, 6-Hydroxy-pyrazolo[1,5-a]pyrimidine-3-carboxylic acid (5-chloro-2-piperidin-1-yl-phenyl)-amide] |
| 0.85 µM | – | 0.012 µM | NCC1CCN(c2cc3ncccc3cc2NC(=O)c2csc3cncnc23)CC1 [Example 14, hydrochloride] |
| 0.168 µM | – | 0.011 µM | O=C(Nc1cc2cccnc2cc1O[C@H]1CC[C@H](O)CC1)c1csc2cncnc12 |
| 0.712 µM | 0.017 µM | 0.01 µM | COc1cc2ncccc2cc1NC(=O)c1csc2cnc(NCCN)nc12 |
